Assay results taken from US20170304355A1, “COMPOSITIONS AND METHODS OF USE THEREOF” (priority 2014, published 2017).
Like-named read-outs stand apart in the source and are kept apart here.

What was measured:
[1] = system: MRSA strain SA5; test: Minimal Biofilm Inhibitory Concentration (MBIC) assay; assay type: cell-based, Staphylococcus aureus
Method: (§1) Each isolate was taken from the −80° C. freezer stock and grown for approximately 20 hours in LB Broth at 37° C. shaking water bath. […] The antibiotics and PAAG (22.4% functionalization, 36.9 kDa, 89.74 DDA, 1.63 PDI) were prepared similar to a checkerboard assay (2× concentration to accommodate addition of culture) in MH broth, in a sterile flat-bottomed 96-well plate. For MRSA strain SA5, the PAAG concentrations tested were 0-128 ug/ml. The vancomycin concentrations tested were 0-4 ug/ml. […] The tobramycin concentrations tested were 0-4 ug/ml. Plates were incubated in a 37° C. incubator.
(§2) The fractional inhibitory concentration (FIC) was calculated as; FIC calculation: […]
(§3) and the FIC relationship was defined as; Synergy: FIC≦0.5; Additive: 0.5<FIC≦1.0; or Indifferent: FIC>1.0.

[2] = system: MRSA; test: Broth microdilution checkerboard assay, PAAG and oxacillin; assay type: cell-based, Staphylococcus aureus; details: for MIC: Staphylococcus aureus, MRSA
Excerpt: (§4) Checkerboard and time kill bactericidal studies of mupriocin, methicillin-resistant Staphylococcus aureus strains 2-4C and 2-9A were completed as part of the synergy studies to evaluate potentiation of […] by PAAG (25% functionalized, 43 kDa). Synergistic relationships between PAAG and oxacillin were examined in vitro using the broth microdilution checkerboard assay in 96-well microtiter plates. Serial two-fold dilutions of PAAG and oxacillin were placed in each well with approximately 1×10^5 CFU/ml of S. aureus. Each plate was incubated 20 hours. The MIC was determined as the lowest concentration where no visible bacterial growth was observed. […] Controls for bacterial growth and sterility were included. The FIC for each strain was calculated. The FIC is an interaction coefficient indicating whether the combined inhibitory/bacteristatic effect of drugs is synergistic (FIC of 0.5 or less), additive ([…]), or antagonistic (FIC>4). The FIC is =A+B, where: A=(MIC of X with Y)/(MIC of drug X alone) and B=(MIC of Y with X)/(MIC of drug Y alone). The time-kill assay (vCFU) was performed using the microdilution technique. Approximately 1×10^5 CFU/ml of each bacteria tested was tested against mupriocin alone and in combination. Concentrations of PAAG tested were ½-⅛×MIC. The vCFU was determined after 24 hours treatment using the microtiter technique (8).

[3] = system: mupirocin-resistant MRSA strains 2-4C and 2-9A; test: Time-kill assay (vCFU), PAAG and mupirocin; assay type: cell-based, Staphylococcus aureus; details: 24-hours
Excerpt: as §4

[4] = system: clinical isolates of P. aeruginosa; test: Checkerboard assay, PAAG and tobramycin; assay type: cell-based; details: Pseudomonas aeruginosa
Method: Two independent checkerboard assays screened 64 unique combinations of antimicrobial concentrations in duplicate. […] Bacteria were incubated at 37° C. for 20 hours. The MIC was determined as the lowest concentration with no visible bacterial growth observed.

[5] = system: P. aeruginosa strain SUS116; test: Minimal Biofilm Inhibitory Concentration (MBIC) assay; assay type: cell-based; details: for MBIC Tobramycin: alone
Method: as §1, §2, §3

[6] = system: P. aeruginosa strain PA01; test: Checkerboard assay, various PAAG's and tobramycin; assay type: cell-based; details: Pseudomonas aeruginosa

## CN[C@H](CC(C)C)C(=O)N[C@H]1C(=O)N[C@@H](CC(N)=O)C(=O)N[C@H]2C(=O)N[C@H]3C(=O)N[C@H](C(=O)N[C@H](C(=O)O)c4cc(O)cc(O)c4-c4cc3ccc4O)[C@H](O)c3ccc(c(Cl)c3)Oc3cc2cc(c3O[C@@H]2O[C@H](CO)[C@@H](O)[C@H](O)[C@H]2O[C@H]2C[C@](C)(N)[C@H](O)[C@H](C)O2)Oc2ccc(cc2Cl)[C@H]1O [Vancomycin]
[1]; alone
  MBIC Vancomycin: 2 µg/mL
[1]; in combination with PAAG
  MBIC Vancomycin (with PAAG): 1 µg/mL

## Cc1onc(-c2ccccc2)c1C(=O)N[C@@H]1C(=O)N2[C@@H]1SC(C)(C)[C@@H]2C(=O)O [OXA, oxacillin]
[2]; all strains, alone, read-out: MIC oxacillin
  MIC: ≥ 4 µg/mL
[2]; strain 2-1A, alone, read-out: MIC OXA
  MIC: 8 µg/mL
[2]; strain 2-1A, read-out: MIC OXA with PAAG
  MIC: 1 µg/mL
[2]; strain 2-4C, alone, read-out: MIC OXA
  MIC: 16 µg/mL
[2]; strain 2-4C, read-out: MIC OXA with PAAG
  MIC: 2 µg/mL
[2]; strain 2-9A, alone, read-out: MIC OXA
  MIC: 8 µg/mL
[2]; strain 2-9A, read-out: MIC OXA with PAAG
  MIC: 0.5 µg/mL
[2]; strain MW-2, alone, read-out: MIC OXA
  MIC: 4 µg/mL
[2]; strain MW-2, read-out: MIC OXA with PAAG
  MIC: 1 µg/mL
[2]; strain SA05, alone, read-out: MIC OXA
  MIC: 4 µg/mL
[2]; strain SA05, read-out: MIC OXA with PAAG
  MIC: 1 µg/mL
[2]; all strains, PAAG at 2, 8 or 16 μg/ml
  MIC of oxacillin after addition of PAAG (susceptible range): ≥ 2 µg/mL

## C/C(=C\C(=O)OCCCCCCCCC(=O)O)C[C@@H]1OC[C@H](C[C@@H]2O[C@H]2[C@@H](C)[C@H](C)O)[C@@H](O)[C@H]1O [Mup, mupirocin]
[3]; strain 2-4C, Mup 8 μg/ml alone
  Log10 reduction (CFU/ml): 0 Log10 CFU/ml
[3]; strain 2-9A, Mup 4 μg/ml alone
  Log10 reduction (CFU/ml): 0 Log10 CFU/ml

## NC[C@H]1O[C@H](O[C@H]2[C@H](O)[C@@H](O[C@H]3O[C@H](CO)[C@@H](O)[C@H](N)[C@H]3O)[C@H](N)C[C@@H]2N)[C@H](N)C[C@@H]1O [Tobramycin]
[4]; strain AMT-32-4, alone, read-out: MIC Tobramycin
  MIC: 0.31 µg/mL
[4]; strain AMT-32-4, read-out: MIC Tobramycin (with PAAG)
  MIC: 0.13 µg/mL
[4]; strain MR29, alone, read-out: MIC Tobramycin
  MIC: 0.31 µg/mL
[4]; strain MR29, read-out: MIC Tobramycin (with PAAG)
  MIC: 0.25 µg/mL
[4]; strain MR 51, alone, read-out: MIC Tobramycin
  MIC: 0.31 µg/mL
[4]; strain MR 51, read-out: MIC Tobramycin (with PAAG)
  MIC: 0.13 µg/mL
[4]; strain PA01, alone, read-out: MIC Tobramycin
  MIC: 0.31 µg/mL
[4]; strain PA01, read-out: MIC Tobramycin (with PAAG)
  MIC: 0.13 µg/mL
[4]; strain SUS 116, alone, read-out: MIC Tobramycin
  MIC: 1.25 µg/mL
[4]; strain SUS 116, read-out: MIC Tobramycin (with PAAG)
  MIC: 0.13 µg/mL
[5]; PAAG and tobramycin table (TABLE 2)
  MBIC Tobramycin: 6.25 µg/mL
[5]; column of the PAAG and aztreonam table (TABLE 1)
  MBIC Tobramycin: 2 µg/mL
[5]; in combination with PAAG
  MBIC Tobramycin (with PAAG): 2 µg/mL
[6]; PA01, alone, assay run with PAAG^1, read-out: MIC Tobramycin
  MIC: 1 µg/mL
[6]; PA01, alone, assay run with PAAG^2, read-out: MIC Tobramycin
  MIC: 0.5 µg/mL
[6]; PA01, alone, assay run with PAAG^3, read-out: MIC Tobramycin
  MIC: 0.5 µg/mL
[6]; PA01, with PAAG^1 (27%, 32 kDa), read-out: MIC Tobramycin (with PAAG)
  MIC: 0.031 µg/mL
[6]; PA01, with PAAG^2 (31%, 54 kDa), read-out: MIC Tobramycin (with PAAG)
  MIC: 0.031 µg/mL
[6]; PA01, with PAAG^3 (25%, 40 kDa), read-out: MIC Tobramycin (with PAAG)
  MIC: 0.063 µg/mL

## C[C@H]1[C@H](NC(=O)/C(=N\OC(C)(C)C(=O)O)c2csc(N)n2)C(=O)N1S(=O)(=O)O [Aztreonam]
[5]; in combination with PAAG
  MBIC Aztreonam (with PAAG): 0.06 µg/mL
